# Several values for one entry are separate records, joined by “and”; a condition that tells them apart may be missing. Equal entries are not always repeated.
# Assays:
# IFN-γ producing PBMC = test: IFN-γ ELISpot assay; assay type: cell-based, human; conditions: Kathon stimulation, spontaneous spots subtracted; allergic individuals, one line per patient
# Experimental: Peripheral blood mononuclear cells (PBMC) were obtained from Kathon (methylisothiazolinone) allergy patients or control individuals as described in Example 2.
# The PBMC were stimulated with Kathon (methylisothiazolinone) and cytokine responses were analysed.
# (§1) Matched pairs of monoclonal antibodies (mAb) to human IL-4, IL-5, IL-13 or IFN-γ were used for ELISpot assays (Mabtech AB, Stockholm, Sweden). As in Example 4 above, for each pair, one mAb was used as a capture mAb and the other for detection. MAbs used for detection were biotinylated.
# Ninetysix-well plates with polyvinylidene difluoride membranes (MAIPS45-10, Millipore) were treated with 100 μl of 70% EtOH for 2-10 min followed by six washes with 200 μl sterile deionized H2O. To each well, 100 μl of capture mAb at a concentration of 15 μg/ml in phosphate-buffered saline (PBS) was added and incubated over night at +4° C. The plates were washed three times with 200 μl or sterile PBS and three times with 200 μl medium containing 2% FCS. PBMC incubated for 4 h with or without stimuli in test tubes were suspended and 100 μl cell suspension (2×10^5 cells) was added to each well. After an additional incubation of 44 h, the wells were emptied and washed six times with 200 μl PBS. […] After rinsing the plates with tap water, the plates were dried and spots were counted using a light microscope.
# IL-5 producing PBMC = test: IL-5 ELISpot assay; assay type: cell-based, human; conditions: for IL-5 production in response to NiCl2 (ELISpot): 50 μM NiCl2, FIG. 1
# Text: (§2) Blood from ACD patients or control individuals were obtained by venipuncture and collected in sterile heparinised glass vials. Peripheral blood mononuclear cells (PBMC) were separated by density gradient centrifugation over Ficoll-Hypaque. After separation, PBMC were washed twice in medium (RPMI 1640 containing glutamin, Hepes, Penicillin/Streptomycin and 10% fetal calf serum (FCS)) and used fresh for experiments. Alternatively, PBMC were frozen in 90% FCS and 10% dimethylsulfoxide and kept in liquid nitrogen until tested. Prior to being tested, frozen cells were thawed at 37° C. and medium was added dropwise whereafter the cells were washed twice with medium.
# (§3) The PBMC were stimulated with various concentrations of NiCl2 and both proliferative responses and cytokine responses were analysed. NiCl2 at a stock concentration of 50 mM was mixed with medium and incubated for more than five minutes before being added to cells. PBMC diluted to a cell concentration of 4-6×10^6 cells/ml were mixed with an equal volume of NiCl2 diluted in medium resulting in a final concentration of 2×10^6 cells/ml and NiCl2 at concentrations ranging from 10-100 μM. The cell suspensions were incubated in plastic vials for 4 h at 37° C. in a humidified incubator. In parallel with incubating PBMC with NiCl2, PBMC at the same concentration were incubated with mitogen (1 μg phytohemagglutinin (PHA)/ml), control antigens (10 μg tetanus toxoid (TT) or purified protein derivative (PPD)/ml) or in the absence of stimuli.
# (§4) Matched pairs of monoclonal antibodies (mAb) to human IL-4, IL-5 or IL-13 were used for the ELISpot assays (Mabtech AB, Stockholm, Sweden). […]
# (§5) Ninetysix-well plates with polyvinylidene difluoride membranes (MAIPS45-10, Millipore) were treated with 100 μl of 70% EtOH for 2-10 min followed by six washes with 200 μl sterile deionized H2O. […] After rinsing the plates with tap water, the plates were dried and spots were counted using a light microscope. […]
# IL-4 producing PBMC = test: IL-4 ELISpot assay; assay type: cell-based, human; conditions: for IL-4 producing cells/200 000 PBMC after stimulation with 50 μM NiCl2 / IL-4 producing cells/200 000 PBMC, 50-0 / IL-4 producing cells/200 000 PBMC after stimulation with 100 μM NiCl2 / IL-4 producing cells/200 000 PBMC, 100-0: one line per subject; for IL-4 producing cells/200 000 PBMC, 50-0: 50 μM NiCl2 after subtraction of spontaneous spots; for IL-4 producing cells/200 000 PBMC, 100-0: 100 μM NiCl2 after subtraction of spontaneous spots
# Text: as §2, §3
# Matched pairs of monoclonal antibodies (mAb) to human IL-4, IL-5 or IL-13 were used for the ELISpot assays (Mabtech AB, Stockholm, Sweden). For each pair, one mAb was used as a capture mAb: 82.4 (IL-4), TRFK5 (IL-5) and IL13-I (IL-13) and the other for detection, 12.1 (IL-4), 5A10 (IL-5) and IL13-II (IL-13). MAbs used for detection were biotinylated.
# Ninetysix-well plates with polyvinylidene difluoride membranes (MAIPS45-10, Millipore) were treated with 100 μl of 70% EtOH for 2-10 min followed by six washes with 200 μl sterile deionized H2O. To each well, 100 μl of capture mAb at a concentration of 15 μg/ml in phosphate-buffered saline (PBS) was added and incubated over night at +4° C. The plates were washed three times with 200 μl or sterile PBS and three times with 200 μl medium containing 2% FCS. PBMC incubated for 4 h with or without stimuli in test tubes were suspended and 100 μl cell suspension (2×10^5 cells) was added to each well. After an additional incubation of 44 h, the wells were emptied and washed six times with 200 μl PBS. Biotinylated detection mAb at 1 μg/ml in PBS containing 0.5% FCS was added at a volume of 100 μl and incubated for 2 h at room temperature whereafter the wells were washed six times with PBS. Subsequently, 100 μl of SA-ALP (Streptavidin-Alkaline phosphatase, Mabtech) at 50 ng/ml in PBS with 0.5% FCS was added to each well and incubated for 1 h followed by washing in PBS six times before developing the wells with 100 μl nitroblue tetraxolium (NBT)/5-bromo-4-chloro-3-indolyl phosphate (BCIP) substrate (Sigma) for approximately 1 h. After rinsing the plates with tap water, the plates were dried and spots were counted using a light microscope.
# as §1
# Ninetysix-well plates with polyvinylidene difluoride membranes (MAIPS45-10, Millipore) were treated with 100 μl of 70% EtOH for 2-10 min followed by six washes with 200 μl sterile deionized H2O. To each well, 100 μl of capture mAb at a concentration of 15 μg/ml in phosphate-buffered saline (PBS) was added and incubated over night at +4° C. The plates were washed three times with 200 μl or sterile PBS and three times with 200 μl medium containing 2% FCS. […]
# IL-13 producing PBMC = test: IL-13 ELISpot assay; assay type: cell-based, human; conditions: for IL-13 production in response to NiCl2 (ELISpot): 50 μM NiCl2, FIG. 1
# Text: as §2, §3, §4, §5
# [1] = test system: ACD patients and control individuals; test: Epicutaneous patch test; assay type: in vivo, human; conditions: 48 h
# Experimental: Prior to the patch testing of the control group, blood samples for ELISpot analysis were taken to avoid an impact of the patch test on the ELISpot analysis. Epicutaneous patch tests using 5% NiSO4 in petrolatum was applied for 48 h whereafter the reaction, sites were inspected. […] All ACD patients were selected based on previous patch tests giving scores of 2+ or 3+ having 3+ as the highest score.
# Prior to the patch testing of the control group, blood samples for ELISpot analysis were taken to avoid an impact of the patch test on the ELISpot analysis. Epicutaneous patch tests were applied for 48 h whereafter the reaction sites were inspected. […] This patient also gave a negative result in the ELISpot assay (see Table 2).
# PBMC = test: Proliferative response of PBMC (stimulation index); assay type: cell-based, human; conditions: one line per subject
# Text: as §2
# as §3, with “In parallel with incubating PBMC with NiCl2, PBMC at the same concentration were incubated with mitogen (1 μg phytohemagglutinin (PHA)/ml), control antigens (10 μg tetanus toxoid (TT) or purified protein derivative (PPD)/ml) or in the absence of stimuli.” left out
# [2] = Kathon stimulation, spontaneous spots subtracted, allergic individuals, one line per patient
# [3] = PBMC from allergic individuals (n=8)
# [4] = PBMC from non-allergic individuals (n=7)
smiles,measurement,setting,value
"Cn1sccc1=O [Kathon, methylisothiazolinone]","Number of responding cells (spots) per 200,000 cells, IFN-gamma",IFN-γ producing PBMC,"39 spots per 200,000 cells and 113 spots per 200,000 cells and 0 spots per 200,000 cells and 21 spots per 200,000 cells"
same,"Number of responding cells (spots) per 200,000 cells, IL-5",IL-5 producing PBMC; [2],"3 spots per 200,000 cells and 5 spots per 200,000 cells and 0 spots per 200,000 cells and 2 spots per 200,000 cells"
same,"Number of responding cells (spots) per 200,000 cells, IL-4",IL-4 producing PBMC; [2],"14 spots per 200,000 cells and 21 spots per 200,000 cells and 0 spots per 200,000 cells and 3 spots per 200,000 cells"
same,"Number of responding cells (spots) per 200,000 cells, IL-13",IL-13 producing PBMC; [2],"51 spots per 200,000 cells and 50 spots per 200,000 cells and 0 spots per 200,000 cells and 19 spots per 200,000 cells"
same,Patch test response,"[1]; Kathon (methylisothiazolinone), non-allergic controls",None of the controls responded positively
[Cl][Ni][Cl] [NiCl2],IL-5 production in response to NiCl2 (ELISpot),IL-5 producing PBMC; [3],shown to produce
same,IL-5 production in response to NiCl2 (ELISpot),IL-5 producing PBMC; [4],this was not seen
same,"IL-4 ELISpot mean values, allergic versus non-allergic group","IL-4 producing PBMC; 10 μM NiCl2, data not shown",higher mean values for the allergic group
same,IL-4 producing cells/200 000 PBMC after stimulation with 50 μM NiCl2,IL-4 producing PBMC; allergic group,137 cells/200 000 PBMC and 48 cells/200 000 PBMC and 19 cells/200 000 PBMC and 26 cells/200 000 PBMC and 127 cells/200 000 PBMC and 27 cells/200 000 PBMC and 60 cells/200 000 PBMC and 9 cells/200 000 PBMC and 8 cells/200 000 PBMC and 13 cells/200 000 PBMC and 23 cells/200 000 PBMC
same,IL-4 producing cells/200 000 PBMC after stimulation with 50 μM NiCl2,IL-4 producing PBMC; non-allergic group,3 cells/200 000 PBMC (2×) and 4 cells/200 000 PBMC (2×) and 9 cells/200 000 PBMC and 7 cells/200 000 PBMC and 1 cells/200 000 PBMC and 2 cells/200 000 PBMC (2×)
same,"IL-4 producing cells/200 000 PBMC, 50-0",IL-4 producing PBMC; allergic group,134 cells/200 000 PBMC and 47 cells/200 000 PBMC and 17 cells/200 000 PBMC and 21 cells/200 000 PBMC (2×) and 118 cells/200 000 PBMC and 25 cells/200 000 PBMC and 55 cells/200 000 PBMC and 5 cells/200 000 PBMC and 7 cells/200 000 PBMC and 12 cells/200 000 PBMC
same,"IL-4 producing cells/200 000 PBMC, 50-0",IL-4 producing PBMC; non-allergic group,1 cells/200 000 PBMC and 2 cells/200 000 PBMC and 4 cells/200 000 PBMC and 0 cells/200 000 PBMC (6×)
same,IL-4 producing cells/200 000 PBMC after stimulation with 100 μM NiCl2,IL-4 producing PBMC; allergic group,21 cells/200 000 PBMC and 28 cells/200 000 PBMC (2×) and 122 cells/200 000 PBMC and 30 cells/200 000 PBMC and 63 cells/200 000 PBMC and 16 cells/200 000 PBMC and 18 cells/200 000 PBMC and 24 cells/200 000 PBMC
same,IL-4 producing cells/200 000 PBMC after stimulation with 100 μM NiCl2,IL-4 producing PBMC; non-allergic group,5 cells/200 000 PBMC and 8 cells/200 000 PBMC (2×) and 4 cells/200 000 PBMC (2×) and 14 cells/200 000 PBMC and 1 cells/200 000 PBMC and 6 cells/200 000 PBMC
same,"IL-4 producing cells/200 000 PBMC, 100-0",IL-4 producing PBMC; allergic group,19 cells/200 000 PBMC and 23 cells/200 000 PBMC (2×) and 113 cells/200 000 PBMC and 28 cells/200 000 PBMC and 58 cells/200 000 PBMC and 12 cells/200 000 PBMC and 17 cells/200 000 PBMC and 25 cells/200 000 PBMC
same,"IL-4 producing cells/200 000 PBMC, 100-0",IL-4 producing PBMC; non-allergic group,3 cells/200 000 PBMC (2×) and 1 cells/200 000 PBMC (2×) and 5 cells/200 000 PBMC and 2 cells/200 000 PBMC and 0 cells/200 000 PBMC and 4 cells/200 000 PBMC
same,IL-13 production in response to NiCl2 (ELISpot),IL-13 producing PBMC; [3],shown to produce
same,IL-13 production in response to NiCl2 (ELISpot),IL-13 producing PBMC; [4],this was not seen
same,Proliferation (SI) (50 μM NiCl2),PBMC; PBMC of allergic group,higher in the group of allergic individuals and 15.9 and 8.4 and 15.4 and 16.2 and 11.8 and 24.9 and 11.0 and 31.6 and 44.8 and 10.1 and 92.2
same,Proliferation (SI) (50 μM NiCl2),PBMC; PBMC of non-allergic group,3.1 (2×) and 0.9 and 1.2 and 2.0 and 3.3 and 6.8 and 5.1 and 8.2
O=S(=O)([O-])[O-].[Ni+2] [NiSO4],Patch test reactivity,"[1]; 5% NiSO4 in petrolatum, non-allergic group, one line per subject",None of the controls responded positively
